Assays:
pig plasma [1] = assay: Activated partial thromboplastin time (APTT), pig plasma; details: [I] 32 μM
[2] = biological target: T1, porcine pancreatic elastase (PPE) (Sus scrofa, UniProt P00772); assay: Inactivation of porcine pancreatic elastase (PPE); type: biochemical; details: Table X; after 20 min incubation
T1 construct: from tissue; host or cells: porcine pancreas (from the name)
Description: Inactivation rates of serine proteases by substituted isocoumarins were measured by the incubation method. An aliquot of inhibitor (25 or 50 μl) in Me2 SO was added to a buffered enzyme solution (0.01-2.3 μM) to initiate the inactivation. Aliquots (50 μl) were withdrawn at various intervals and the residual enzymatic activity was measured. Me2 SO concentration in the reaction mixture was 8-12% (v/v). 0.1 Hepes, 0.01M CaCl2, pH 7.5 buffer was utilized for trypsin and coagulation enzymes. 0.1M Hepes, 0.5M NaCl, pH 7.5 was utilized for other serine proteases. […] Peptide thioesters or peptide nitroanilides with appropriate sequence were used as substrates for various serine proteases. All peptide thioester hydrolysis rates were measured with assay mixtures containing 4,4'-dithiodipyridine (ε324 =19800M^-1 cm^-1 ; Grasetti & Murray, Arch. Biochem. Biophys. 119, pp 41-49 (1967)). Peptide 4-nitroanilide nitroanilide hydrolysis was measured at 410 nm (ε410 =8800M^-1 cm^-1 ; Erlanger et al., Arch. Biochem. Biophys. 95, pp 271-278 (1961)). First order inactivation rate constant (kobs) were obtained from plots of ln (vt /vo) vs time, and the correlation coefficients were greater than 0.98.
^a Inactivation rates were measured at 0.1M Hepes, 0.5 NaCl, pH 7.5,
8-12% Me2 SO and 25° C. by incubation method.
^a Inhibition rates were measured in 0.1M Hepes, 0.05M NaCl, pH 7.5
buffer, 8-9% Me2 SO and at 25° C.
^a Inhibition constants were in 0.1M Hepes, 0.5M NaCl, pH 7.5 buffer,
8-9% Me2 SO and at 25° C.
^a Inhibition rates were measured in 0.1M Hepes, 0.5M NaCl, 2.5%
Me2 SO, pH 7,5 and at 25° C.
^a Inhibition was measured in 0.1M Hepes, 0.5M NaCl, pH 7.5 buffer,
5-10% Me2 SO and at 25° C. Suc--Val--Pro--Phe--NA (0.48 mM)
was used as the substrate for chymotrypsin and cat G.
^a Inhibition rates were measured in 0.1M Hepes, 0.5M NaCl, pH 7.5

bovine thrombin = biological target: T2, bovine thrombin (Bos taurus, UniProt P00735); assay: Inactivation rate of bovine thrombin; type: biochemical; details: Table VIII; pH 7.5, 25° C; [I] 1.2-54 μM; read-out: kobs/[I]
T2 construct: bovine thrombin
Description: (§1) Inactivation rates of serine proteases by substituted isocoumarins were measured by the incubation method. An aliquot of inhibitor (25 or 50 μl) in Me2 SO was added to a buffered enzyme solution (0.01-2.3 μM) to initiate the inactivation. Aliquots (50 μl) were withdrawn at various intervals and the residual enzymatic activity was measured. Me2 SO concentration in the reaction mixture was 8-12% (v/v). 0.1 Hepes, 0.01M CaCl2, pH 7.5 buffer was utilized for trypsin and coagulation enzymes. 0.1M Hepes, 0.5M NaCl, pH 7.5 was utilized for other serine proteases. The inhibitor concentrations are shown in all the tables. Peptide thioesters or peptide nitroanilides with appropriate sequence were used as substrates for various serine proteases. All peptide thioester hydrolysis rates were measured with assay mixtures containing 4,4'-dithiodipyridine (ε324 =19800M^-1 cm^-1; Grasetti & Murray, Arch. Biochem. Biophys. 119, pp 41-49 (1967)). Peptide 4-nitroanilide nitroanilide hydrolysis was measured at 410 nm (ε410 =8800M^-1 cm^-1; Erlanger et al., Arch. Biochem. Biophys. 95, pp 271-278 (1961)). First order inactivation rate constant (kobs) were obtained from plots of ln (vt /vo) vs time, and the correlation coefficients were greater than 0.98.
^a Conditions were as 0.1M Hepes, 0.01M CaCl2, pH 7.5 and 8-12%
Me2 SO and 25° C. Rate constants were measured by incubation
method unless otherwise noted. An aliquot of inhibitor was added to an
enzyme solution and aliquots removed with time and assayed for remaining
enzymatic activity. Firstorder rate constants, kobs were obtained
from the plots of ln(vt /vo) versus time.
(§2) ^a Inhibition rates were measured in 0.1M Hepes, 0.01M CaCl2, pH
(§3) 7.5 buffer, 8% Me2 SO and at 25° C.

chymotrypsin = chymotrypsin (Bos taurus, UniProt P00766); assay: Inactivation of chymotrypsin; type: biochemical, bovine; details: Table X; pH 7.5, 25° C; [I] 0.9-43 μM; read-out: kobs/[I]
human thrombin = biological target: T3, human thrombin (Homo sapiens, UniProt P00734); assay: Inactivation rate of human thrombin; type: biochemical; details: Table VIII; pH 7.5, 25° C; [I] 1.2-54 μM; read-out: kobs/[I]
T3 construct: human thrombin
Description: as §1, §2, §3

cathepsin G = biological target: T4, cathepsin G (Homo sapiens, UniProt P08311); assay: Inactivation of cathepsin G; type: biochemical; details: Table X; pH 7.5, 25° C; [I] 33-46 μM; read-out: kobs/[I]
T4 construct: from tissue; host or cells: human leukocytes
T4 sequence (P08311 21-255): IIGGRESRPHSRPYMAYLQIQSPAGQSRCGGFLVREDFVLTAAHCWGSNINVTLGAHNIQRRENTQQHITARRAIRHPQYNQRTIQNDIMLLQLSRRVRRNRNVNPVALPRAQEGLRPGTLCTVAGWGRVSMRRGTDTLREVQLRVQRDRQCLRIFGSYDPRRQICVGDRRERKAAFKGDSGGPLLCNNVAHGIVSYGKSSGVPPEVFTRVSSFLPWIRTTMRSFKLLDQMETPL

[3] = biological target: T5, human leukocyte elastase (HLE) (Homo sapiens, UniProt P08246); assay: Inactivation of human leukocyte elastase (HLE); type: biochemical; details: Table X; after 5 min incubation
T5 construct: from tissue; host or cells: human leukocytes (from the name)
T5 sequence (P08246 30-267): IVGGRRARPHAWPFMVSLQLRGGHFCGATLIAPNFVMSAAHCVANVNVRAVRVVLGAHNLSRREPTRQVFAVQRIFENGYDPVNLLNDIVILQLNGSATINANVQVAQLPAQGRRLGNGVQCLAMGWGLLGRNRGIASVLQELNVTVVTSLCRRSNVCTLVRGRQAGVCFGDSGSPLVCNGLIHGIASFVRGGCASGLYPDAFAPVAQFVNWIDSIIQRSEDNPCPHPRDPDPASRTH

pig plasma [4] = assay: Prothrombin time (PT), pig plasma; details: [I] 32 μM
complement protein D = complement protein D (Homo sapiens, UniProt P00746); assay: Inactivation rate of complement protein D; type: biochemical; details: Table II; pH 7.5, 25° C; [I] 0.05 to 1.29 mM; read-out: kobs/[I]
Description: as §1
^a Conditions were 0.1M Hepes, 0.5M NaCl, pH 7.5, 8-10% Me2 SO
and 25° C. Inactivation rates were measured by incubation method.
Enzyme concentrations were as follows: protein D, 1-9 μM; C2, 0.7-1
μM; B, 1.8 μM; Bb, 0.3-0.8 μM; Cl^- s, 0.07 μM; Cl^-

Chain of complement protein D (P00746 26-253): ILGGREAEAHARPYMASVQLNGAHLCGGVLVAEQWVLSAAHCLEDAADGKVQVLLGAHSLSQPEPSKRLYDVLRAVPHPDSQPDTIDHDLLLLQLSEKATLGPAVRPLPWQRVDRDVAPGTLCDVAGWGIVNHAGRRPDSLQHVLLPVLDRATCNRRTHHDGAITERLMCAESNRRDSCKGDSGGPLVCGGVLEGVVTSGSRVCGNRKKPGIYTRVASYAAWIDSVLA
T1 sequence (P00772 27-266): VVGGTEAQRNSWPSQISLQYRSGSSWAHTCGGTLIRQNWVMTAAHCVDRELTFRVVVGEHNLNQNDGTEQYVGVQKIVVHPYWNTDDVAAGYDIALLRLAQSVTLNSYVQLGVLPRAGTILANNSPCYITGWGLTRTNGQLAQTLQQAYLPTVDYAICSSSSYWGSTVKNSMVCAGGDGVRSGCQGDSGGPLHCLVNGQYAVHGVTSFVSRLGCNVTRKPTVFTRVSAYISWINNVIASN

percentage of inhibition [2] [%] | kinact/KI (bovine thrombin) [M⁻¹ s⁻¹] | kinact/KI (chymotrypsin) [M⁻¹ s⁻¹] | kinact/KI (human thrombin) [M⁻¹ s⁻¹] | kinact/KI (cathepsin G) [M⁻¹ s⁻¹] | percentage of inhibition [3] [%] | kinact/KI (complement protein D) [M⁻¹ s⁻¹] | Structure (SMILES) | APTT (pig plasma [1]) [s] | PT (pig plasma [4]) [s]
9 | 29500 | 360 | 12000 | 145 | 40 |  | C[C@@H](NC(=O)Nc1ccc2c(Cl)c(OCCSC(=N)N)oc(=O)c2c1)c1ccccc1 [R-C6 H5 (CH3)CHNHCONH-CiTEtOIC, 7-((R)-α-methylbenzylcarbamoylamino)-4-chloro-3-(2-isothiureidoethoxy)isocoumarin] | > 120 | 26.2
 |  |  |  |  |  | 0.25 | CCOc1oc(=O)c2ccccc2c1Cl [3-ethoxy-4-chloroisocoumarin, reference compound] |  | 
 |  |  |  |  |  | 1.3 | COc1oc(=O)c2cc(N)ccc2c1Cl [7-amino-3-methoxy-4-chloroisocoumarin, reference compound] |  | 
